Data from US20240325398A1, “COMBINATION THERAPIES” (Infinity Pharmaceuticals, Inc., priority 2014, published 2024).

Key:
RPMI-8226 = test: Combination study, ATPLite 72 h, dose matrix (Synergy Score, CI50); conditions: combination with Compound 1
KARPAS-422 = test: as above; conditions: combination with Compound 1, 72 h
OCI-Ly3 = test: as above; conditions: combination with Compound 1; OCI-Ly3; 72 h
DOHH-2 = test: as above; conditions: combination with Compound 1, 72 h
HBL-1 = test: as above; conditions: combination with Compound 1, 72 h
Farage = test: as above; conditions: combination with Compound 1
KARPAS-299 = test: as above; conditions: combination with Compound 1
SU-DHL-4-epst = test: as above; conditions: combination with Compound 1, 72 h
WSU-NHL = test: as above; conditions: combination with Compound 1, 72 h
Procedure: (§1) Cells are thawed from a liquid nitrogen preserved state. Once cells have been expanded and divide at their expected doubling times, screening begins. Cells are seeded in growth media in either black 1536-well or 384-well tissue culture treated plates. Cells are then equilibrated in assay plates via centrifugation and placed in incubators attached to the Dosing Modules at 37° C. for 24 hours before treatment. […] These Tzero (To) plates are read using ultra-sensitive luminescence on Envision plate readers (Perkin Elmer). Treated assay plates are incubated with compound for 72 hours. After 72 hours, plates are developed for endpoint analysis using ATPLite. All data points are collected via automated processes, quality controlled and analyzed using Zalicus software.
(§2) where T is treated cell count and V is untreated (vehicle) cell count (at 72 hours). I ranges from 0% (when T=V) to 100% (when T=0). […] The measure of effect in the experiment can be the inhibition of cellular response relative to the untreated level (vehicle alone). […] The inhibition ranges from 0% at the untreated level to 100% when T=0. Inhibition levels are negative for agents that actually increase levels. Other effect measures, such as an activity ratio r=T/V may be more appropriate for some assays. When activity ratios (e.g, fold increase over stimulated control) are being used, the effect can be measured using an induction 1=ln(T/V). With this definition, all effect expressions are the same as for inhibition.
(§3) Growth Inhibition (GI) is used as a measure of cell viability. […] A GI reading of 100% represents complete growth inhibition—T72 compound-treated and T0 vehicle signals are matched. […] A GI reading of 200% represents complete death of all cells in the culture well. Compounds reaching an activity plateau of GI 200% are considered cytotoxic. GI is calculated by applying the following test and equation:
(§4) Combination analysis data were collected in a 6×6 dose matrix. Synergy is calculated by comparing a combination's response to those of its single compound, against the drug-with-itself dose-additive reference model. Deviations from dose additivity may be assessed visually on an isobologram or numerically with a Combination Index (CI). […] Additive effect is CI=1.0. […] Antagonistic effect is CI>1.0.
(§5) To measure combination effects in excess of Loewe additivity, a scalar measure to characterize the strength of synergistic interaction termed the Synergy Score is devised. The Synergy Score is calculated as:
(§6) The fractional inhibition for each component agent and combination point in the matrix is calculated relative to the median of all vehicle-treated control wells. The Synergy Score equation integrates the experimentally-observed activity volume at each point in the matrix in excess of a model surface numerically derived from the activity of the component agents using the Loewe model for additivity. Additional terms in the Synergy Score equation (above) are used to normalize for various dilution factors used for individual agents and to allow for comparison of synergy scores across an entire experiment. The inclusion of positive inhibition gating or an Idata multiplier removes noise near the zero effect level, and biases results for synergistic interactions at that occur at high activity levels.
(§7) Loewe Volume (Loewe Vol) is used to assess the overall magnitude of the combination interaction in excess of the Loewe additivity model. Loewe Volume is particularly useful when distinguishing synergistic increases in a phenotypic activity (positive Loewe Volume) versus synergistic antagonisms (negative Loewe Volume). […] This model defines additivity as a non-synergistic combination interaction where the combination dose matrix surface should be indistinguishable from either drug crossed with itself.

NCI-H929 = test: as above; conditions: combination with Compound 1
SU-DHL-10-epst = test: as above; conditions: combination with Compound 1, 72 h
Jeko-1 = test: as above; conditions: combination with Compound 1
Procedure: as §1, §2, §3, §4, §5, §6, §7

[1] = as above; conditions: combination with Compound 1; OPM-2
OMP-2 = test: as above; conditions: combination with Compound 1; OPM-2
GRANTA-519 = test: as above; conditions: combination with Compound 1
Procedure: as §1, §2, §3, §4, §5, §6, §7

U-2932 = test: as above; conditions: combination with Compound 1, 72 h
Procedure: as §1, §2, §3, §4, §5, §6
Loewe Volume (Loewe Vol) is used to assess the overall magnitude of the combination interaction in excess of the Loewe additivity model. Loewe Volume is particularly useful when distinguishing synergistic increases in a phenotypic activity (positive Loewe Volume) versus synergistic antagonisms (negative Loewe Volume). […] This model defines additivity as a non-synergistic combination interaction where the combination dose matrix surface should be indistinguishable from either drug crossed with itself. The calculation for Loewe additivity is:

RL = test: as above; conditions: combination with Compound 1, 72 h
OCI-Ly7 = test: as above; conditions: combination with Compound 1, 72 h
HH = test: as above; assay type: cell-based; conditions: combination with Compound 1
Procedure: The method is described as follows.
Additive effect is CI=1.0. […] Antagonistic effect is CI>1.0.
The Synergy Score is calculated as: […]

Mino = test: as above; conditions: combination with Compound 1
Procedure: as §1, §2, §3, §4, §5, §6, §7

TMD8 = test: as above; conditions: combination with Compound 1

CO[C@H]1C[C@@H]2CC[C@@H](C)[C@@](O)(O2)C(=O)C(=O)N2CCCC[C@H]2C(=O)O[C@H]([C@H](C)C[C@@H]2CC[C@@H](OCCO)[C@H](OC)C2)CC(=O)[C@H](C)/C=C(\C)[C@@H](O)[C@@H](OC)C(=O)[C@H](C)C[C@H](C)/C=C/C=C/C=C/1C [everolimus, dihydroxy-12-[(2R)-1-[(1S,3R,4R)-4-(2-hydroxyethoxy)-3-methoxycyclohexyl]propan-2-yl]-19,30-dimethoxy-15,17,21,23,29,35-hexamethyl-11,36-dioxa-4-azatricyclo[30.3.1.0]hexatriaconta-16,24,26,28-tetraene-2,3,10,14,20-pentone]
T (T=0.5 to <0.7): CI50 growth inhibition (HBL-1) | CI50 growth inhibition (Farage; Farage, 72 h) | CI50 growth inhibition (WSU-NHL) | CI50 inhibition (NCI-H929) | CI50 growth inhibition (Jeko-1) | CI50 growth inhibition (RL) | CI50 growth inhibition (Mino) | CI50 growth inhibition (TMD8; TMD8, 72 h)
synergistic effect: effect of the combination (isobologram) (Farage; Farage DLBCL cell line, FIG. 4-5) | effect of the combination (isobologram) (TMD8; TMD8 DLBCL cell line, FIG. 1-3)
W (W=≥1): CI50 inhibition (RPMI-8226) | CI50 growth inhibition (KARPAS-422) | CI50 inhibition (KARPAS-299) | CI50 inhibition (OMP-2) | CI50 inhibition (OCI-Ly7)
A2 (A2=1 to <3): Synergy Score growth inhibition (RPMI-8226) | Synergy Score growth inhibition (KARPAS-422) | Synergy Score inhibition (KARPAS-422) | Synergy Score growth inhibition (OCI-Ly3) | Synergy Score growth inhibition (HBL-1) | Synergy Score inhibition (NCI-H929) | Synergy Score growth inhibition (Jeko-1) | Synergy Score inhibition (Jeko-1) | Synergy Score growth inhibition (OMP-2) | Synergy Score inhibition (OMP-2) | Synergy Score growth inhibition (GRANTA-519) | Synergy Score growth inhibition (U-2932) | Synergy Score inhibition (U-2932) | Synergy Score growth inhibition (RL) | Synergy Score inhibition (RL) | Synergy Score growth inhibition (OCI-Ly7) | Synergy Score inhibition (OCI-Ly7) | Synergy Score inhibition (HH) | Synergy Score growth inhibition (Mino) | Synergy Score inhibition (Mino)
A1 (A1=0.0001 to <1): Synergy Score inhibition (RPMI-8226) | Synergy Score inhibition (OCI-Ly3) | Synergy Score inhibition (HBL-1) | Synergy Score growth inhibition (KARPAS-299) | Synergy Score inhibition (KARPAS-299) | Synergy Score inhibition (GRANTA-519)
U (U=0.7 to <1): CI50 growth inhibition (RPMI-8226) | CI50 growth inhibition (OCI-Ly3) | CI50 inhibition (HBL-1) | CI50 growth inhibition (KARPAS-299) | CI50 inhibition (Jeko-1) | CI50 inhibition (Mino)
S (S=0.01 to <0.5): CI50 inhibition (KARPAS-422) | CI50 growth inhibition (DOHH-2) | CI50 inhibition (DOHH-2) | CI50 inhibition (Farage; Farage, 72 h) | CI50 growth inhibition (SU-DHL-4-epst) | CI50 inhibition (SU-DHL-4-epst) | CI50 inhibition (WSU-NHL) | CI50 growth inhibition (NCI-H929) | CI50 growth inhibition (SU-DHL-10-epst) | CI50 inhibition (SU-DHL-10-epst) | CI50 growth inhibition [1] | CI50 growth inhibition (GRANTA-519) | CI50 growth inhibition (U-2932) | CI50 inhibition (RL) | CI50 growth inhibition (OCI-Ly7) | CI50 growth inhibition (HH) | CI50 inhibition (HH) | CI50 inhibition (TMD8; TMD8, 72 h)
A3 (A3=>3): Synergy Score growth inhibition (DOHH-2) | Synergy Score inhibition (DOHH-2) | Synergy Score growth inhibition (Farage; Farage, 72 h) | Synergy Score inhibition (Farage; Farage, 72 h) | Synergy Score growth inhibition (SU-DHL-4-epst) | Synergy Score inhibition (SU-DHL-4-epst) | Synergy Score growth inhibition (WSU-NHL) | Synergy Score inhibition (WSU-NHL) | Synergy Score growth inhibition (NCI-H929) | Synergy Score growth inhibition (SU-DHL-10-epst) | Synergy Score inhibition (SU-DHL-10-epst) | Synergy Score growth inhibition (HH) | Synergy Score growth inhibition (TMD8; TMD8, 72 h) | Synergy Score inhibition (TMD8; TMD8, 72 h)
